Data: patent US7202287B2, “Method and compositions” (Arch Chemicals, Inc., priority 2000, dated 2007)

Key:
[1] = tested on: Pseudomonas aeruginosa NCIB 10421; test: Minimum inhibitory concentration against mono-cultures, microtitre plate doubling dilutions in nutrient broth; type: cell-based; details: 24 hours at 37° C., visual inspection
Protocol: Pseudomonas aeruginosa NCIB 10421 Bacteria were grown to stationary phase (18 h) in nutrient broth (approximately 10^9 organisms per ml). A 0.1% (v/v) inoculum was used to seed fresh medium and 100 μl of the inoculum was then added to each well of a microtitre plate, except for the first well which contained 200 μl. Using doubling dilutions, the concentration of the compounds under investigation were varied in each well along the ordinate axis. The presence or absence of growth was recorded by visual inspection after 24 hours incubation at 37° C. […]

[2] = tested on: Aspergillus Niger IMI 17454; test: Minimum inhibitory concentration against monocultures (fungus); type: cell-based; details: Example 3, Table 5; biocide alone
Protocol: Aspergillus Niger IMI 17454 The fungus was maintained on malt agar. The MICs were calculated as described previously in examples 1 and 2.

With `O=c1[nH]sc2ccccc12` [BIT, 1,2-benzisothiazolin-3-one] the “MIC (ppm) against Ps. aeruginosa” value ([1]; Example 1, Table 1, biocide alone) was 32 ppm.
With `CCCCn1sc2ccccc2c1=O` [Butyl BIT, 2n-butyl-1,2-benzisothiazolin-3-one] the “MIC (ppm) against Ps. aeruginosa” value ([1]; Example 2, Table 3, biocide alone) was 125 ppm and the “MIC (ppm) against Aspergillus Niger” value [2] was 8 ppm.
